Results published in article PMC8962335, “In Vivo Evaluation of ECP Peptide Analogues for the Treatment of Acinetobacter baumannii Infection” (Biomedicines, 2022).
“And” between values parts separate entries of the source, which are not always exact repeats. Equal entries are not always repeated.

Key:
[1] = tested on: A. baumannii; type: cell-based, Acinetobacter baumannii; details: 24 h incubation, MHB, triplicate
Text: (§1) A. baumannii strain (CECT 452, Valencia, Spain, ATCC 15308, Manassas, VA, USA) and Pseudomonas aeruginosa (P. aeruginosa) strain (CECT 4122, Valencia, Spain, ATCC 15692, Manassas, VA, USA) were from the Colección Española de Cultivos Tipo (CECT, Valencia, Spain). The Escherichia coli (E. coli) BL21 (DE3) strain was from Novagen (Darmstadt, Germany). MRC-5 cells were from the American Type Culture Collection (ATCC, Manassas, VA, USA) and HEK293T cell line was kindly provided by Dr. Raquel Pequerul (UAB, Barcelona, Spain).
(§2) The MIC is defined as the lowest concentration of one reagent to prevent visible growth of bacteria. The MIC determination was followed by the protocol described previously. Briefly, bacteria in exponential growth were used to prepare a suspension in MHB with the approximate number of 5 × 10^5 CFU/mL. Next, an aliquot of 90 μL of bacteria suspension was added into each well of the 96-well polypropylene plate. Immediately, 10 μL of peptide diluted by 0.01% acetic acid was added to the corresponding well to have a final concentration ranging from 20 to 0.16 μM. The plate was incubated for 24 h at 37 °C, 100 rpm. The presence or absence of bacterial growth was visually inspected and confirmed by reading OD600 with Tecan Microplate Reader Spark®. Each test was performed in triplicate.

[2] = cited from earlier work
[3] = tested on: LPS; test: LPS in serum of infected mice by ELISA; type: in vivo, Balb/c mice; details: second efficacy assay, colistin 15 mg/kg versus ECPep-D 20 mg/kg, p < 0.1
Method: In the second efficacy study, the blood of animals that either died for severe clinical symptoms or were euthanized at the end of the assay, were collected for testing TNF-α and LPS levels by ELISA. In order to check the levels of TNF-α and free LPS, only serum was analyzed, after discarding blood cells by centrifugation. The blood from mice was centrifuged at 3200 rpm for 30 min and the supernatants were collected carefully to ensure that there were no sediments left. Mouse ELISA kits for TNF-α and LPS were used.
According to the description of the manufacturer, LPS level determination is based on the principle of double antibody sandwich technology, where the microplates pre-coated with specific antibodies were used. Following addition of serum samples to the wells, the HRP-Conjugate reagent was added to form an immune complex. After incubation and washing, the unbound enzyme was removed. Then, chromogen substrates were added successively and optical density was recorded using microplate reader set at 450 nm. Sample readings were corrected using the baseline corresponding to serum of mice neither infected nor treated. A calibration standard curve was prepared and final calculated values were positively correlated with the concentration of LPS. Two replicates were performed according to the protocols for the representation of the standard curve and the sample testing.

[4] = tested on: LPSRa (LPS from E. coli EH100, Ra mutant); test: LPS affinity assay (BODIPY TR cadaverine displacement); type: binding; details: 50% of BC probe bound to LPS displaced; Mean ± SE
Text: (§3) Lipopolysaccharides (LPS) from E. coli O111:B4 (O-LPS), EH100 (Ra mutant), and J5 (Rc mutant), porcine mucin, Mueller Hinton broth (MHB) and Thiazolyl Blue Tetrazolium […] (MTT) were purchased at Sigma-Aldrich (Saint Louis, MO, USA). Colistin sulphate and Dimethyl sulfoxide (DMSO) were from Apollo Scientific (Stockport, UK). BODIPY® TR cadaverine (BC) were from Molecular Probes (Eugene, OR, USA). Mouse TNF-α ELISA Kit (MBS175787, MyBioSource, San Diego, CA, USA) and Mouse LPS ELISA Kit (MBS7700668, MyBioSource, San Diego, CA, USA) were from bioNova científica s.l. (Madrid, Spain) Human TNF-α ELISA set was from BD Biosciences (555212, BD OptEIA^TM, San Jose, CA, USA). Aspidasept® (pep19-2.5) is an antibacterial/anti-inflammatory peptide drug ([…], with C-terminal amide).
(§4) The LPS affinity was assessed using the fluorescent probe BC by an adaptation of the displacement assay reported. Peptides and colistin were serially diluted in a 96-well fluorescence plate from 20 to 0.16 μM in Tris/HCl 50 mM PH 7.4. Next, LPS and BC diluted in the same buffer were added to have the final concentration of 50 μg/mL and 5 μM, respectively. Fluorescence measurements were performed on Tecan Microplate Reader Spark® at 580 nm of excitation wavelength and 620 nm of the emission wavelength at 5 nm for optimal gain. Each test was performed in triplicate.

[5] = tested on: O-LPS (LPS from E. coli O111:B4); test: as above; type: binding; details: 50% of BC probe bound to LPS displaced; Mean ± SE
Text: as §3, §4

[6] = tested on: LPSRc (LPS from E. coli J5, Rc mutant); test: as above; type: binding; details: 50% of BC probe bound to LPS displaced; Mean ± SE
Text: as §3, §4

[7] = tested on: E. coli; type: cell-based, Escherichia coli; details: 24 h incubation, MHB, triplicate
Text: as §1, §2

[8] = tested on: P. aeruginosa; type: cell-based, Pseudomonas aeruginosa; details: 24 h incubation, MHB, triplicate
Text: as §1, §2

[9] = tested on: HEK293T cells
Method: (§5) Cytotoxicity was measured for the MRC-5 and HEK293T cell lines by MTT assay. Cells were grown in 5% CO2 at 37 °C with MRC-5 cell line maintained in MEMα and HEK293T in DMEM/F-12 media, both of which were supplemented with 10% FBS. The cells were passaged in 25 cm^2 or 75 cm^2 flasks to prepare 96-well plates with 3 × 10^4 cells/well, which were incubated overnight. Next, serial dilutions of ECPep-D and ECPep-2D-Orn were added to have a final concentration ranging from 100 to 0.78 μM (375 μg/mL to 3 μg/mL) and colistin was added at final concentrations ranging from 300 to 2.34 μM (380 μg/mL to 3 μg/mL) in corresponding wells. After incubation to the specified time, the medium of the plate was replaced by fresh medium containing 0.5 mg/mL MTT solution and the mixture was incubated for 2.5 h in 5% CO2 at 37 °C. The medium was then removed, and formazan was dissolved by adding DMSO. The optical density (OD) was recorded by using a Victor^3 plate reader (PerkinElmer, Waltham, MA, USA) set at 540 nm and 620 nm as a reference. Each test was performed in triplicate.

[10] = tested on: A. baumannii; test: Efficacy assay in murine acute systemic infection model (survival); type: in vivo, Balb/c mice; details: 10^8 CFU/kg A. baumannii, colistin 15 mg/kg
Method: An aliquot from an A. baumannii stock stored in 15% glycerol at −80 °C was taken to culture in 3 mL LB overnight at 250 rpm, 37 °C. Next, OD600 reading of A. baumannii overnight culture was performed to adjust to the number of bacteria required (CFU/mL) and then diluted by half with the same volume of 10% porcine mucin, to obtain a solution of selected CFU/mL in 5% mucin for mice inoculation. […] The inoculating volume was decided based on the body weight of each animal (10 mL/kg).
When the sum of the scores reached a maximum value of 7, the mice were euthanized following ethical principles. The infection was first tested at a concentration of 10^9 CFU/kg and then set at 10^7 CFU/kg and 10^8 CFU/kg. […] We also performed an extra assay where mice infected by 10^8 CFU/kg of A. baumannii were treated with colistin, used as a positive control.
To avoid bias, the reagents for these four groups were given to technicians in advance and renumbered randomly, designated as A, B, C, D, respectively. […]
The clinical symptoms were assessed through a scoring system, which contains 9 items, including changes of body weight, behavior, breathing, skin, hair, eyes and gastrointestinal status (see full list at Table S2). […] During the study, when an animal obtained a score of 3 in any of the parameters assessed with a maximum score of 3, euthanasia was carried out to apply the endpoint criteria. […]

[11] = tested on: MRC-5 cells; test: Cytotoxicity assay (MTT); details: MTT, Mean ± SE, N.D. = no reduction in cell viability detected at the highest concentration
Method: as §5

Colistin sulphate [reference compound]
MIC A. baumannii [1]: 0.31 μM and 0.40 μg/mL | LD50 by intraperitoneal administration ([2]; Swiss albino mice, single injection): 20 to 30 mg/kg | deaths from neurotoxicity ([2]; mice receiving 32 mg/(kg × day), after three doses): three of twelve mice died | LD50 for the intraperitoneal route ([2]; mice, ref U.S. National Library of Medicine ChemIDplus 1264-72-8): 21.8 mg/kg | concentration of LPS in serum, Day 3 [3]: slightly increased | EC50 [4]: 13.1 ± 0.4 µM | EC50 LPSRa [4]: 16.63 ± 0.50 µg/mL | EC50 [5]: 7.87 ± 0.33 µM | EC50 O-LPS [5]: 9.97 ± 0.42 µg/mL | EC50 [6]: 19.2 ± 0.34 µM | EC50 LPSRc [6]: 24.31 ± 0.42 µg/mL | MIC E. coli [7]: 5 μM and 6.34 μg/mL | MIC P. aeruginosa [8]: 0.31 μM and 0.40 μg/mL | IC50 (HEK293T) 48h ([9]; MTT, Mean ± SE): > 380.26 µg/mL | IC50 ([9]; read-out: IC50 (HEK293T) 48h, MTT, Mean ± SE): > 300 µM | survival rate, first efficacy assay ([10]; i.p. once every 24 h for 3 days from 2 h post inoculum, peptides 10 mg/kg, 3 days): 100% | survival rate after 3 days (72 h), second efficacy assay ([10]; single i.p. dose 2 h post inoculum, peptides 20 mg/kg, 72 h): 100% | LD50 (MRC-5) 24 h ([11]; 24 h): >300 μM and >380.26 μg/mL | LD50 (MRC-5) 48 h ([11]; 48 h): >300 μM and >380.26 μg/mL
